Assay [1] has as its system collagen-induced platelet aggregation. To be noted: background art, cited from earlier work.
Assay [2] has the same test system. The assay can be described thus: Platelet aggregation-inhibitory action (collagen-induced aggregation in platelet rich plasma). Format: cell-based. The following applies: human PRP, 37° C., read-out: Inhibition of collagen-induced platelet aggregation, IC50. On the procedure: The blood was centrifuged at 180×g for 10 minutes to separate platelet rich plasma (PRP) from the blood. Upper layer PRP was removed, and the lower layer was centrifuged at 1600×g for 10 minutes, to thereby recover the upper layer platelet poor plasma (PPP). A solution (1 μL) of compound of the present invention was added to PRP (200 μL), and the mixture was allowed to stand at 37° C. for 2 minutes. Subsequently, collagen (2 μL) was added to the resultant mixture so as to induce platelet aggregation. Percent platelet aggregation was measured using PAM-12C (SSR Engineering). Optical transmittance of PPP was regarded as an indicator of 100% aggregation. Percent platelet aggregation values of the respective compounds were determined at different concentrations. IC50 values were calculated.

In assay [3] the target is T1, Cyclooxygenase-1 (COX-1) (Ovis aries, UniProt P05979).
T1 construct: purchased Cayman Chemical Company 560101 and 560121
T1 sequence (P05979 25-600): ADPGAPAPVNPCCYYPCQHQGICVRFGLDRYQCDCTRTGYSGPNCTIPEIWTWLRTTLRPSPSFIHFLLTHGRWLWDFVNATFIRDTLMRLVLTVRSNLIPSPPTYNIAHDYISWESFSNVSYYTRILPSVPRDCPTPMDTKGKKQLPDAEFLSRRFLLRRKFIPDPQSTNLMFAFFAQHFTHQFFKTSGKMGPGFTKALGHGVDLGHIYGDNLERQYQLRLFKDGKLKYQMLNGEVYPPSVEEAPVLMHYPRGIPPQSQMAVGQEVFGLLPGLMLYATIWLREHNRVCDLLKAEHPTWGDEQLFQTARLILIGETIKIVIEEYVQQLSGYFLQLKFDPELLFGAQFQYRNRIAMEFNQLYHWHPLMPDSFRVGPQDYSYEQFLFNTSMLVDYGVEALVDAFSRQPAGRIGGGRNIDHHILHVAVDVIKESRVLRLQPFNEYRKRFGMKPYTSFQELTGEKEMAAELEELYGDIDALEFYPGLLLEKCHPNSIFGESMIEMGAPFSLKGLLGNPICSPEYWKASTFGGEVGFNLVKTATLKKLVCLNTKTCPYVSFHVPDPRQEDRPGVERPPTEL
Nature of the assay: COX Inhibitor Screening Assay Kit, COX-1 (PGF2α by ELISA). To be noted: 50 μM compound; read-out: Inhibitory effect against COX-1 at 50 μM (% inhibition). Format: biochemical. As to the method:
(§1) COX-1 inhibiting activity and COX-2 inhibiting activity of inventive compounds produced in some of the Examples herein were measured by use of a COX Inhibitor Screening Assay Kit (product of Cayman Chemical Company, Catalog Nos. 560101 and 560121).
(§2) Before starting the measurement, a reaction buffer, heme, arachidonic acid, SnCl2, EIA buffer, washing buffer, prostaglandin (PG) screening EIA standard, PG screening acetylcholine esterase (AchE), tracer ([…]), and PG screening EIA antiserum were prepared ready for use.
(§3) Production of PGF in the Presence of COX-1 or COX-2
A reaction mixture containing a compound of the present invention from the Examples (50 μM) and COX-1 or COX-2 was allowed to stand at 37° C. for 10 minutes. Arachidonic acid (10 μL) was added thereto, and the resultant mixture was further allowed to stand at 37° C. for 2 minutes. 1N-Hydrochloric acid (50 μL) was added to the reaction mixture, to thereby stop the reaction. SnCl2 solution (100 μL) was added thereto, and the resultant mixture was allowed to stand at room temperature for 5 minutes.
(§4) (2) Quantitative Determination of PGF2α Using ELISA
Antiserum (rabbit anti-PGF2α antibody, 50 μL) was added to the wells of a 96-well plate that had been coated with mouse anti-rabbit IgG. A solution of PGF2α-containing mixture obtained above (2000-fold dilution, 50 μL) and an AchE tracer (50 μL) were sequentially added to each well, and the mixture was allowed to stand at room temperature for 18 hours. The wells were washed 5 times with the washing buffer to remove an excessive AchE tracer, and an Ellman reagent (200 μL) was added. After keeping the plate in a dark room for 60 minutes, absorbance was measured at 405 nm.
(3) Calculation of Inhibitory Activity of the Compounds of the Present Invention
(§5) A calibration curve was obtained by use of a PG screening EIA standard, and the production amount of PGF2α was determined from the absorbance Percent inhibition against COX-1 or COX-2 in the presence of a 50 μM of the compound was calculated.

Assay [4] has as its target T2, Cyclooxygenase-2 (COX-2) (Homo sapiens, UniProt P35354).
T2 construct: purchased Cayman Chemical Company 560101 and 560121
T2 sequence (P35354 18-604): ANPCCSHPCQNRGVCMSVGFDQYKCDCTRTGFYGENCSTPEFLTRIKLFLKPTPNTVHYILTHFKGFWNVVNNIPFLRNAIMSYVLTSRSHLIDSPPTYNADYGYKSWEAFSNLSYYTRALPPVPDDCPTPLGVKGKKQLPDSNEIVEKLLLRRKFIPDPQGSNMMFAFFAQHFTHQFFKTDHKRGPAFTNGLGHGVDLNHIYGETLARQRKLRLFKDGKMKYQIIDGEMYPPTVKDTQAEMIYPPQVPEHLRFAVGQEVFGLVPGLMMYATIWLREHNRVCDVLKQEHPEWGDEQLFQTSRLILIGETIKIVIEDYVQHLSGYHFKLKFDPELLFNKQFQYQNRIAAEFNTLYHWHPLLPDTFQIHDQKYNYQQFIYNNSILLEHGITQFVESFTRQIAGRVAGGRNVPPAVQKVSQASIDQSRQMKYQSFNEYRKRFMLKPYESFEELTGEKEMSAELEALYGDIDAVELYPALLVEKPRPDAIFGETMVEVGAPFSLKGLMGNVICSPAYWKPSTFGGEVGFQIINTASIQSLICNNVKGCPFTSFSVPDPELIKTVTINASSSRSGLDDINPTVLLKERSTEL
Nature of the assay: COX Inhibitor Screening Assay Kit, COX-2 (PGF2α by ELISA). Format: biochemical. The following applies: 50 μM compound; read-out: Inhibitory effect against COX-2 at 50 μM (% inhibition). As to the method:
as §1, §2, §3
A reaction mixture containing a compound of the present invention from the Examples (50 μM) and COX-1 or COX-2 was allowed to stand at 37° C. for 10 minutes. Arachidonic acid (10 μL) was added thereto, and the resultant mixture was further allowed to stand at 37° C. for 2 minutes. […]
as §4
Antiserum (rabbit anti-PGF2α antibody, 50 μL) was added to the wells of a 96-well plate that had been coated with mouse anti-rabbit IgG. […] After keeping the plate in a dark room for 60 minutes, absorbance was measured at 405 nm. […]
as §5
A general note: An ELISA detects its analyte on a solid surface through an enzyme-linked reagent.

Like-named read-outs stand apart in the source and are kept apart here.

Broadly, the IC50 is the concentration needed to halve the response being measured. On to `CS(=O)(=O)c1ccc(-c2cc(C#N)nn2-c2ccc(F)cc2)cc1` [Compound (A)], for which, in assay [1] (read-out: IC50 value against collagen-induced platelet aggregation), the IC50 was 5300 nM. What is called inhibition is the relative decrease from the control value, in per cent. For the compound `NC(=O)c1ccc(-c2cc(C(=O)N3CCC(F)(F)CC3)nn2-c2cccnc2)nc1` [Example 13, 1-[5-(5-Carbamoyl-2-pyridyl)-1-(3-pyridyl)-1H-pyrazole-3-carbonyl]-4,4-difluoropiperidine], in assay [2], the 50% inhibitory concentration (IC50) amounted to 130 nM. For the same compound, the inhibition at 50 µM in assay [3] turned out to be 10.3%.

On to `Cc1ccc(-c2cc(C(=O)N3CCC(F)(F)CC3)nn2-c2cccnc2)nc1` [Example 15, 1-[5-(5-Methyl-2-pyridyl)-1-(3-pyridyl)-1H-pyrazole-3-carbonyl]-4,4-difluoropiperidine], for which, in assay [2], the IC50 stood at 9 nM. Moreover, the inhibition at 50 µM in assay [3] was found to be 8.1%. On to `O=C(c1cc(-c2ccc(Cl)cn2)n(-c2cccnc2)n1)N1CCC(F)CC1` [Example 29, 1-[5-(5-Chloro-2-pyridyl)-1-(3-pyridyl)-1H-pyrazole-3-carbonyl]-4-fluoropiperidine], for which the inhibition at 50 µM in assay [4] is 5.3%; in assay [3], -1.4%. In assay [2], the IC50 is 95 nM. `COC1CCN(C(=O)c2cc(-c3ccc(C)cn3)n(-c3cccnc3)n2)CC1` [Example 30, 1-[5-(5-Methyl-2-pyridyl)-1-(3-pyridyl)-1H-pyrazole-3-carbonyl]-4-methoxypiperidine]: the IC50 in assay [2] is 120 nM. For the same compound, the inhibition at 50 µM in assay [3] is -21.1%.

`Cc1ccc(-c2cc(C(=O)N3CCC(F)CC3)nn2-c2cccnc2)nc1` [Example 33]: in assay [2], the IC50 turned out to be 31.3 nM. In assay [3], the inhibition at 50 µM was -16.7%. For `Cc1ccc(-c2cc(C(=O)N3CCCCN3)nn2-c2cccnc2)nc1` [Example 57, 1-[5-(5-Methylpyridin-2-yl)-1-(pyridin-3-yl)-1H-pyrazole-3-carbonyl]hexahydropyridazine], in that order: 140 nM and -17.4%.

As for `O=C(c1cc(-c2ccc(CO)cn2)n(-c2cccnc2)n1)N1CCC(F)(F)CC1` [Example 65, 1-[5-(5-Hydroxymethylpyridin-2-yl)-1-(pyridin-3-yl)-1H-pyrazole-3-carbonyl]-4,4-difluoropiperidine], in assay [2], the IC50 turned out to be 130 nM. Further, the inhibition at 50 µM in assay [3] stood at 5.9%. As to `Cc1ccc(-c2cc(C(=O)N3CCN(C)CC3)nn2-c2cccnc2)nc1` [Example 67, 1-[5-(5-Methylpyridin-2-yl)-1-(pyridin-3-yl)-1H-pyrazole-3-carbonyl]-4-methylpiperazine], in assay [2], the IC50 turned out to be 190 nM. Moreover, the inhibition at 50 µM in assay [3] is -21%. Take `Cn1cnc(-c2cc(C(=O)N3CCC(F)(F)CC3)nn2-c2cccnc2)c1` [Example 70, 1-[5-(1-Methyl-1H-imidazol-4-yl)-1-(pyridin-3-yl)-1H-pyrazole-3-carbonyl]-4,4-difluoropiperidine]: the IC50 in assay [2] was found to be 280 nM. Besides, in assay [3], the inhibition at 50 µM amounted to 5.5%. For `Cc1ccc(-c2cc(C(=O)N3CCN(C)C(=O)C3)nn2-c2cccnc2)nc1` [Example 71, 1-[5-(5-Methylpyridin-2-yl)-1-(pyridin-3-yl)-1H-pyrazole-3-carbonyl]-4-methyl-3-oxopiperazine], in that order: 270 nM and 18.1%.

For the compound `C=C1CCN(C(=O)c2cc(-c3cn(C)cn3)n(-c3cccnc3)n2)CC1` [Example 73, 1-[5-(1-Methyl-1H-imidazol-4-yl)-1-(pyridin-3-yl)-1H-pyrazole-3-carbonyl]-4-methylenepiperidine], the IC50 in assay [2] turned out to be 78 nM. In assay [3], the inhibition at 50 µM was 11.9%. Regarding `COc1ccc(-c2cc(C(F)F)nn2-c2ccc(S(N)(=O)=O)cc2)cc1F` [compound (B)], in assay [1], the “platelet aggregation inhibitory activity compared with inhibitory activity against COX-2” value is listed as “not so potent”.

These data come from patent US20080064682A1, “Pyrazole Derivatives” (DAIICHI PHARMACEUTICAL CO., LTD., priority 2004, published 2008).
